# How the values were obtained:
# [1] = test system: rabbit model of stereotactic lung radiosurgery; assay: SB-CSI with hp Xe-129 in a rabbit model of stereotactic lung radiosurgery with and without a radioprotector; assay type: in vivo, New Zealand rabbits; conditions: for mean difference between the lungs (SB-CSI maps, mean±SD): right lower lobe 3 x 11 Gy, 50 mg/Kg I.V. 20 minutes before each radiation dose, baseline 3.2%±3.5%
# From the text: In order to study the efficacy of this technique for detecting changes in lung physiology and morphology, it was applied to a rabbit model of stereotactic lung radiosurgery with and without a radioprotector. The lower lobes of the right lung of nine New Zealand rabbits were irradiated with 3 doses of 11 Gy each (FIGS. 2A, 2B) using a TomoTherapy Hi-Art scanner. The healthy left lung was spared from radiation, so it could be used as a control and also would improve the animal's quality of life. Six of these nine animals received 50 mg/Kg of the radioprotector Amifostine, through an I.V., 20 minutes before each radiation dose. SB-CSI was performed using a 1.5-Tesla clinical MR scanner at baseline, and at 4 and 8 weeks post-radiation treatment. For correlation with the SB-CSI results, each animal was also scanned at the same time points (in the same MR scanner) using a 3D contrast-enhanced MRA sequence (ce-MRA), with 3 cc of a gadolinium chelate (FIGS. 2E, 2F). Within a week of the Xe-129 scan, a hyperpolarized Helium-3 (hp He-3) ventilation scan (FIGS. 2G, 2H) was obtained using the same inhalation and breath-hold technique as those for Xe-129, and a computed tomography (CT) scan was also obtained with a resolution of 0.5×0.5×1.5 mm^3 (FIGS. 2C, 2D).
# SB-CSI maps based on the integrals of each individual peak were calculated separately for each animal and for each time point. At baseline the mean differences between the lungs were statistically identical for both groups, with 1.3%±1.0% (mean±SD) for the control group (radiosurgery only) and 3.2%±3.5% for the group that received radiosurgery and the radioprotector. At 4 weeks post radiosurgery, the mean differences between the lungs were 6.2%±2.3% and 4.6%±3.2% for the control and radioprotector groups, respectively. At 8 weeks post, the mean difference between the lungs increased to 16.7%±3.2% for the control group, while for the animals that received the radioprotector the value remained identical to baseline, at 3.4%±2.6%. […]
# [2] = test system: rabbit model of lung fibrosis; assay: hyperpolarized Xe-129 2D/3D-CSI in a rabbit model of lung fibrosis (endotracheal bleomycin); assay type: in vivo, New Zealand White rabbits; conditions: after endotracheal instillation, scans at 2, 4 and 7 weeks
# From the text: Three New Zealand White rabbits underwent hyperpolarized Xe-129 2D or 3D-CSI one four different days: one before and 2, 4 and 7 weeks after the endotracheal instillation of bleomycin which induces lung fibrosis, or after the endotracheal instillation of porcine elastase which initially induces lung inflammation but later induces emphysema, and one control animal with no intervention. All scans were done in a 1.5 Tesla clinical system (Avanto, Siemens Medical Solutions) using a transmitter/receiver birdcage RF coil (IGC Medical Advances, Milwaukee, Wis.) tuned to the Xe-129 frequency. Isotopically enriched (˜87%) Xe-129 was polarized to ˜35% using a commercial prototype polarizer (Xemed LLC, NH). For each 2D or 3D acquisition, a single 40-cc volume was administered to the animal, and respiration was suspended for the acquisition (˜6-18s). […]
# Quantification of the maps for the animal in the fibrosis model group show an increase in the tissue/gas and RBC/gas ratios following the instillation of bleomycin, but only the tissue/gas remained elevated, as expected in fibrosis (FIG. 5).
# This Xe-129 dissolved-phase peak is not well resolved in normal rabbits and it was not seen in our control animal. […] Subsequently, each separate peak in the spectrum was quantified using a Principal Component Analysis (PCA) method (33)
Compound,"early treatment toxicity (radiation-induced pulmonary injury) detected by SB-CSI ([1]; 4 and 8 weeks post treatment, versus radiation only)","mean difference between the lungs (SB-CSI maps, mean±SD) ([1]; 4 weeks post radiosurgery, control group 6.2%±2.3%)","mean difference between the lungs (SB-CSI maps, mean±SD) ([1]; 8 weeks post radiosurgery, control group 16.7%±3.2%)",RBC/gas ratio (Xe-129 CSI maps) ([2]; did not remain elevated (FIG. 5)),tissue/gas ratio (Xe-129 CSI maps) ([2]; remained elevated (FIG. 5))
"NCCCNCCSP(=O)(O)O [radioprotector, Amifostine]",reduced early treatment toxicity,4.6%±3.2%,3.4%±2.6%,–,–
bleomycin,–,–,–,increase,increase

# Reference: patent publication US20100280358A1, “SINGLE BREATH-HOLD SYSTEM AND METHOD FOR DETECTION AND ASSESSMENT OF MULTI-ORGAN PHYSIOLOGIC, MORPHOLOGIC AND STRUCTURAL CHANGES” (University of Virginia Patent Foundation, priority 2009, published 2010)
